Laboratory results from patent US11944613B2, “CYP2J2 antagonists in the treatment of pain” (FRAUNHOFER-GESELLSCHAFT ZUR FÖRDERUNG DER ANGEWANDTEN …, priority 2014, dated 2024).
Counter-ions that a name gives are not always drawn.

How the values were obtained:
CYP2J2 = target: T1, CYP2J2 (Homo sapiens, UniProt P51589); experiment: CYP2J2 P450-Glo luciferase assay (FDA Approved Drug Library screen); settings: read-out: Average inhibition CYP2J2 (%)
T1 sequence (P51589 1-502): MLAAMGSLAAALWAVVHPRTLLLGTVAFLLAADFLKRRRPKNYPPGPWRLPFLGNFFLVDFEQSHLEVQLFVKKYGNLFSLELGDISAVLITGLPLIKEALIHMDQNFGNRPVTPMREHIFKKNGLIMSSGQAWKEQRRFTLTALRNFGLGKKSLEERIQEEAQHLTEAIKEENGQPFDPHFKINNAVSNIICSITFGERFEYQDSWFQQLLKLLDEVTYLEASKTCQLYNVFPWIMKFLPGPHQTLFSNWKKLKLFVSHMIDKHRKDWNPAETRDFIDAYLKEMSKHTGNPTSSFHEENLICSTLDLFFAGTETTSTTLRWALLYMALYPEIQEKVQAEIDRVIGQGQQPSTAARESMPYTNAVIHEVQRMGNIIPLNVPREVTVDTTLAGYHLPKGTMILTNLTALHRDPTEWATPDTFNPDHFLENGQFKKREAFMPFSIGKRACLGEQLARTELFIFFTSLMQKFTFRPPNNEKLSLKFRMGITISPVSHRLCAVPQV

CYP3A4 [1] = target: T2, CYP3A4 (Homo sapiens, UniProt P08684); experiment: in vitro
T2 sequence (P08684 whole entry): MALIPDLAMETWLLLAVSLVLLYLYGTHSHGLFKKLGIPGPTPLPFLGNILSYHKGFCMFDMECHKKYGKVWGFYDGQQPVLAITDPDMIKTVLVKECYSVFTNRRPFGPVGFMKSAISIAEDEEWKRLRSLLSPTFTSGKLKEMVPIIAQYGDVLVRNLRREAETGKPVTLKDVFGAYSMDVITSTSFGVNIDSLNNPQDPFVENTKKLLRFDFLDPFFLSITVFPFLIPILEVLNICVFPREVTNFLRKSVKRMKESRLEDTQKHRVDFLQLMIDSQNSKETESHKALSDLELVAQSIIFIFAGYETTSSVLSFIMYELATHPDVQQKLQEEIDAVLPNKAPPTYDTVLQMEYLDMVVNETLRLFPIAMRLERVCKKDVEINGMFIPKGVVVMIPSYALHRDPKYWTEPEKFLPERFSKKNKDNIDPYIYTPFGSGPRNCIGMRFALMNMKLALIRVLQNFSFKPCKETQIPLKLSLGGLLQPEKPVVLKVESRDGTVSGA

[2] = tested on: lamina II neurons of spinal cord slices; experiment: sEPSC recordings in lamina II neurons of spinal cord slices; format: cell-based
Description: (d) Frequency of sEPSCs. […] (E) Amplitude of sEPSCs. […] To confirm the effect of TRPV1 sensitization by 9,10-EpOME with electrophysiological means, the inventors measured sEPSCs from lamina II neurons of spinal cord slices using two capsaicin stimulations [1 μM] and incubating the cells prior to the second capsaicin stimulus with 9,10-EpOME [1 μM] (FIG. 3C). […] In combination with capsaicin, however, the sEPSC frequency was strongly potentiated (FIG. 3D). However, no difference in the amplitude of sEPSCs could be observed with either 9,10-EpOME, […] or the combination of both substances (FIG. 3E).

DRG neurons = experiment: Calcium imaging: 9,10-EpOME-evoked calcium transients in DRG neurons; format: cell-based, mouse; settings: 9,10-EpOME 10 μM, 30 s; antagonist pre-incubated two minutes; AMG 9810 1 μM, HC-030031 20 μM
Description: FIG. 2: Direct effects of 9,10-EpOME on DRG-neurons. (a) Application of 9,10-EpOME [10 μM, 30 s] causes calcium transients on DRG neurons which respond to high potassium (50 mM KCl, 30 s). A representative trace is shown. (b) Dose response relationship of 9,10-EpOME dependent calcium increases in DRG neurons related to the number of responding neurons Data represents the mean ±SEM of five measurements per concentration. (c) and (d) Calcium transients caused by 9,10-EpOME [10 μM, 30 s] can be disrupted using calcium-free medium containing EGTA (2 mM) washed in 2 minutes before and after 9,10-EpOME stimulation. Data represents the mean ±SEM of 24 (calcium-free) or 16 (control) neurons. (e) and (f) Calcium transients of 9,10-EpOME [10 μM, 30 s] can be blocked by a selective TRPV1 antagonist (AMG 9810, 1 μM) but not by a selective TRPA1 antagonist (HC-030031, 20 μM) washed in for two minutes prior to the second 9,10-EpOME stimulation. Data represents the mean ±SEM of 16 (control), 31 (AMG 9810) or 18 (HC-030031) neurons; **p<0.01, student's t-test.
Next, the inventors characterized 9,10-EpOME concerning its effects on DRG-neurons in calcium imaging experiments. […]

TRPV1 = TRPV1 (Mus musculus, UniProt Q704Y3); experiment: Calcium imaging: TRPV1 sensitization, double capsaicin stimulation of DRG neurons; settings: inhibitor 10 μM, preincubation 1 h; 9,10-EpOME 1 μM
TRPV1, sequence (Q704Y3 whole entry): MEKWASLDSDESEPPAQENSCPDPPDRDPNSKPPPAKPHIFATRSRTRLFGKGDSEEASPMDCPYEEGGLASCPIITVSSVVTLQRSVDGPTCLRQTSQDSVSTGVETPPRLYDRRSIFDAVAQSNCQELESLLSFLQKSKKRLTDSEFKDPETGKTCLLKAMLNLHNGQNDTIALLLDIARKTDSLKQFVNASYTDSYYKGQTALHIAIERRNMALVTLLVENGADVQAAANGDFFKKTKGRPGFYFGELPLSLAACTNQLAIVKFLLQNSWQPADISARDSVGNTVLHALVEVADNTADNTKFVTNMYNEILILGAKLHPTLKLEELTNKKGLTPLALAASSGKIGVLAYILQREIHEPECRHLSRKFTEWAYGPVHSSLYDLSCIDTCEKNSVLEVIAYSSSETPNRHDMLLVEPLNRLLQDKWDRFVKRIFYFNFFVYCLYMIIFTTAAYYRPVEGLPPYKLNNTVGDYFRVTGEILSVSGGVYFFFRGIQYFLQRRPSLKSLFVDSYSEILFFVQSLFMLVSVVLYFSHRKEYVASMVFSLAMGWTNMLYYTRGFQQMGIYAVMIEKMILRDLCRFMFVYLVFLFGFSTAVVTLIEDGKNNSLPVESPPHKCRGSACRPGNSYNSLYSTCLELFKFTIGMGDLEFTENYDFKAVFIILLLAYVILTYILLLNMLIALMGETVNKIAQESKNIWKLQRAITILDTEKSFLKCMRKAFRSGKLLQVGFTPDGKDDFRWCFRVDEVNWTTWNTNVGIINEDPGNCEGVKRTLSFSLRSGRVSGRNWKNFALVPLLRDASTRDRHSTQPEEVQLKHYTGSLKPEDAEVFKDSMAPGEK

CYP3A4 [3] = target: T2, CYP3A4; experiment: CYP3A4 P450-Glo luciferase assay (unselective control)
CYP2J6 = target: T3, CYP2J6 (Mus musculus, UniProt O54750); experiment: LC-MS/MS epoxylipid levels in tissues of paclitaxel treated mice after terfenadine; format: in vivo
T3 construct: the inventors dissected the sciatic nerve, DRGs and the dorsal spinal cord and quantified epoxylipids in these tissues; from tissue; host or cells: sciatic nerve, DRGs, dorsal spinal cord and plasma of paclitaxel-treated C57BL/6N mice
T3 sequence (O54750 1-501): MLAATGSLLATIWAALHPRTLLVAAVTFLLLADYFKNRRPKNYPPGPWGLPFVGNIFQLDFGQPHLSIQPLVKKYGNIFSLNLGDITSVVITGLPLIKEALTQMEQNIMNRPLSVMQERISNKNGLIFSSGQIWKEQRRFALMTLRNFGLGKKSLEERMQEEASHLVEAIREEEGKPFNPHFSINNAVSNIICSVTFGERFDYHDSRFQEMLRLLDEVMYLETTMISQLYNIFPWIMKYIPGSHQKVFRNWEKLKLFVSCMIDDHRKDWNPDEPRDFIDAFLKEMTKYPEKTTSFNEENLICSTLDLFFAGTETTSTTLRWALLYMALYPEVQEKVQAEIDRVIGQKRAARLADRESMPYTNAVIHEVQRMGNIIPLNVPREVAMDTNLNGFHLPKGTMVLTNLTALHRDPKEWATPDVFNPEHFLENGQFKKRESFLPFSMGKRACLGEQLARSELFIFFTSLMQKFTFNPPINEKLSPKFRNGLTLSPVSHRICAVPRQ
Description: (b) Remaining concentrations of all measured epoxylipids and dihydro-metabolites (9,10-EpOME, 12,13-EpOME, 9,10-DiHOME, 12,13-DiHOME and 14,15-EET) in sciatic nerve, DRGs, dorsal horn of the spinal cord and plasma after administration of terfenadine (1 mg·kg-1).
Sample extraction and standards: Sample extraction was performed as described previously. Briefly, stock solutions with 2500 ng/ml of all analytes were prepared in methanol. Working standards were obtained by further dilution with a concentration range of 0.1-250 ng/ml for EETs, EpOMEs and DiHOMEs and HODEs Sample extraction was performed with liquid-liquid-extraction. Therefore tissue or cell culture medium was extracted twice with 600 μl ethyl acetate. The combined organic phases were removed at a temperature of 45° C. under a gentle stream of nitrogen. The residues were reconstituted with 50 μl of methanol/water/(50:50, v/v), centrifuged for 2 min at 10,000×g and then transferred to glass vials (Macherey-Nagel, Düren, Germany) prior to injection into the LC-MS/MS system.
Instrumentation for measuring epoxylipids and HODEs: The LC-MS/MS system consisted of an API 4000 triple quadrupole mass spectrometer (Applied Biosystems, Darmstadt, Germany), equipped with a Turbo-V-source operating in negative ESI mode, an Agilent 1100 binary HPLC pump and degasser (Agilent, Waldbronn, Germany) and an HTC Pal autosampler (Chromtech, Idstein, Germany) fitted with a 25 μL LEAP syringe (Axel Semrau GmbH, Sprockhövel, Germany). High purity nitrogen for the mass spectrometer was produced by a NGM 22-LC-MS nitrogen generator (cmc Instruments, Eschborn, Germany). […] Quantification was performed with Analyst Software V 1.4.2 (Applied Biosystems, Darmstadt, Germany) employing the internal standard method (isotope-dilution mass spectrometry). Ratios of analyte peak area and internal standard area (y-axis) were plotted against concentration (x-axis) and calibration curves were calculated by least square regression with 1/concentration2 weighting.

[4] = tested on: paclitaxel-induced CIPNP in mice
Description: (a) Levels of 9,10-EpOME shown in % of control determined by LC-MS/MS in sciatic nerves, DRGs and the dorsal horn of the spinal cord eight days after treatment with paclitaxel (6 mg·kg-1 i.p. and 1 mg·kg-1 terfenadine (grey) or vehicle (2% DMSO v/v, black)) Data represents mean ±SEM from the DRGs of five mice per group; *p<0.05, **p<0.01, student's t-test. (b) Remaining concentrations of all measured epoxylipids and dihydro-metabolites (9,10-EpOME, 12,13-EpOME, 9,10-DiHOME, 12,13-DiHOME and 14,15-EET) in sciatic nerve, DRGs, dorsal horn of the spinal cord and plasma after administration of terfenadine (1 mg·kg-1). (c) Mechanical thresholds of mice treated with paclitaxel for eight days (6 mg·kg-1 i.p.) that received an intravenous injection of terfenadine (1 or 2 mg kg-1) or vehicle (DMSO 2.5 or 5% (v/v)). The mechanical thresholds were monitored up to 5 h after injection of terfenadine or vehicle. Data represent mean ±SEM from 8-9 mice per group; #, *p<0.05, two-way ANOVA with Bonferroni post hoc test (*1 mg kg-1, #2 mg kg-1 terfenadine). […] Data represent mean ±SEM from 6-9 mice per group.
Paclitaxel was solved in Cremophor EL/Ethanol 1:1 and diluted in saline. The dose for intraperitoneal injection was set to 6 mg/kg as described previously.
For the determination of mechanical allodynia or thermal hypersensitivity, mice were kept in test cages on an elevated grid for at least 2 h to allow accommodation. Baseline measurements were performed using a Dynamic Plantar Aesthesiometer or a Hargreaves Apparatus (Ugo Basile, Comerio, VA, Italy) detecting withdrawal latency of the hind paws after mechanical stimulation. […] Slow movements of the paw were not counted. Paw withdrawal latencies (PWL) were determined in seconds (s) ±0.1 with a cut-off time of 20 s. The non-injected and injected paws were measured alternately in intervals of 5-10 min. […] The non-injected and injected paws were measured alternately in intervals of 5-10 min. […]

wild type BL/6N mice = experiment: Thermal and mechanical thresholds after intraplantar or intrathecal 9,10-EpOME; format: in vivo, mouse
Description: FIG. 5: Intraplantar or intrathecal injection of 9,10-EpOME reduces pain thresholds and sensitizes capsaicin induced mechanical thresholds in wild type mice. (a) and (b) C57B1/6N mice received an intraplantar injection of 9,10-EpOME (10 μM) or vehicle (DMSO 0.3% (v/v) in saline). Thermal (a) or mechanical (b) thresholds were monitored for 5 h post injection. Data represents mean ±SEM from eight mice. (c) and (d) Wild type BL/6N mice were injected intrathecally with 9,10-EpOME (10 μM) or vehicle (DMSO 0.3% (v/v) in saline). Thermal (c) or mechanical (d) thresholds were monitored for 2 h (thermal) or 3 h (mechanical) post injection with 15 minute intervals for the first hour and 30 minute intervals for the second hour. Data represents mean ±SEM from eight mice. Die Abbildungen sind nicht mitgeliefert
For the determination of mechanical allodynia or thermal hypersensitivity, mice were kept in test cages on an elevated grid for at least 2 h to allow accommodation. Baseline measurements were performed using a Dynamic Plantar Aesthesiometer or a Hargreaves Apparatus (Ugo Basile, Comerio, VA, Italy) detecting withdrawal latency of the hind paws after mechanical stimulation. For the assessment of the mechanical thresholds, the steel rod was pushed against the mid-plantar hind paw with linear ascending force (0-5 g over 10 seconds, increasing 0.5 g/s) until a fast withdrawal response occurred. Slow movements of the paw were not counted. Paw withdrawal latencies (PWL) were determined in seconds (s) ±0.1 with a cut-off time of 20 s. The non-injected and injected paws were measured alternately in intervals of 5-10 min. For determination of thermal thresholds, mice were kept in test cages on a warmed glass plate (32° C.) for at least 2 h on the first day to allow accommodation. Then, the mid-plantar region of the paws was stimulated with a radiant heat device, consisting of a high intensity projector lamp, until withdrawal occurred. The non-injected and injected paws were measured alternately in intervals of 5-10 min. For all behavioral tests the investigator was blinded for treatment or genotype of the mice.
Treatments: For peripheral injections, 20 μl of 9,10-EpOME [5 μM] (Cayman, Ann Arbor, MI, USA) were injected subcutaneously (s.c.) in the mid-plantar area of the hind paw. […]
The inventors then tested the Galphas-coupled prostanoid receptors for their potential involvement in 9,10-EpOME dependent TRPV1 sensitization in calcium imaging experiments. […] To characterize in vivo effects of 9,10-EpOME, the inventors injected the lipid in hind paws of wild type BL/6N mice and measured the thermal (FIG. 5A) and mechanical thresholds (FIG. 5B) up to 5 h post injection. […] The inventors then injected 9,10-EpOME intrathecally and measured thermal and mechanical thresholds in short time intervals. […]

[5] = intraplantar injection in hind paws

inhibition at 10 µM (CYP2J2) [%]	inhibition at 30 min, 10 μM (CYP3A4 [1]) [%]	SMILES	other results
64	5.1	C#C[C@]1(O)CC[C@H]2[C@@H]3CCC4=CC(=O)CC[C@@H]4[C@H]3CC[C@@]21CC [c314, Levonorgestrel]	
		COc1cc(CNC(=O)CCCC/C=C/C(C)C)ccc1O [capsaicin]	frequency of sEPSCs, substance alone ([2]; 1 mM as printed in legend, baseline 6.9±0.4 Hz, n=5 neurons): 13.7±0.4 Hz; amplitude of sEPSCs ([2]; n=5 neurons/group): no significant effects
		CC(C)(C)c1ccc(/C=C/C(=O)Nc2ccc3c(c2)OCCO3)cc1 [AMG 9810]	block of the second 9,10-EpOME-evoked calcium transient (DRG neurons): could block
84.4	12.1	C[C@]12CC[C@@H]3c4ccc(O)cc4CC[C@H]3[C@@H]1CC[C@@H]2O [c054, Estradiol]	
		CN(C)CCCn1cc(C2=C(c3c[nH]c4ccccc34)C(=O)NC2=O)c2ccccc21	effect of kinase inhibitor on 9,10-EpOME-evoked TRPV1 sensitization (TRPV1): did not have any effect
71.5	17.4	Cc1cccc(CN2CCN(C(c3ccccc3)c3ccc(Cl)cc3)CC2)c1 (stereo not shown) [c608, Meclizine Dihydrochloride]	
81.8	14	Cc1[nH]cnc1CN1CCc2c(c3ccccc3n2C)C1=O [c595, Alosetron•HCl]	
78	-26.2	CC(C)OC(=O)C(C)(C)Oc1ccc(C(=O)c2ccc(Cl)cc2)cc1 [c246, Fenofibrate]	
		CC(C)(C)c1ccc(C(O)CCCN2CCC(C(O)(c3ccccc3)c3ccccc3)CC2)cc1 (stereo not shown) [Terfenadine]	remaining concentrations of all measured epoxylipids in DRGs, spinal dorsal horn and plasma (CYP2J6; 1 mg·kg-1 i.v.): reduced significantly; 9,10-EpOME concentrations in sciatic nerve, DRGs and dorsal spinal cord (CYP2J6; 1 mg·kg-1 i.v., two hours, eight days after paclitaxel): significant reduction; levels of epoxylipids reduced to (CYP2J6; terfenadine treatment): about 50%; duration of increase in mechanical thresholds ([4]; 1 or 2 mg·kg-1 i.v., eight days after paclitaxel): 2 h; difference between the two doses in mechanical thresholds ([4]; 1 versus 2 mg·kg-1 i.v.): no significant differences; mechanical thresholds of paclitaxel treated mice ([4]; terfenadine 1 or 2 mg·kg-1 i.v., loratadine 1 mg kg-1 i.v., eight days after paclitaxel): significant increase
		CC(C)c1ccc(NC(=O)Cn2cnc3c2c(=O)n(C)c(=O)n3C)cc1 [HC-030031]	block of the second 9,10-EpOME-evoked calcium transient (DRG neurons): but not the TRPA1 antagonist HC-030031 could block
		Cl.Cl.O=S(=O)(NCCNC/C=C/c1ccc(Br)cc1)c1cccc2cnccc12 [H89 dihydrochloride]	effect of kinase inhibitor on 9,10-EpOME-evoked TRPV1 sensitization (TRPV1): significant reduction
76.8	-18.5	CC1(C)O[C@@H]2C[C@H]3[C@@H]4CCC5=CC(=O)CC[C@]5(C)[C@@]4(F)[C@@H](O)C[C@]3(C)[C@]2(C(=O)CCl)O1 [c440, Halcinonide]	
		CCCCC/C=C\CC1OC1CCCCCCCC(=O)O (stereo not shown) [9,10-EpOME, 9,10-epoxy-12Z-octadecenoic acid]	duration of significant reduction of mechanical thresholds (wild type BL/6N mice; [5]): 2 h; duration of significant reduction of thermal thresholds (wild type BL/6N mice; [5]): 1 h; duration of decrease of mechanical thresholds (wild type BL/6N mice; intrathecal injection): up to 1.5 h; thermal thresholds (wild type BL/6N mice; intrathecal injection, 30 minutes after i.th. injection): significant but rather weak reduction
78.2	-4.3	CCC(=O)O[C@]1(C(=O)CCl)[C@@H](C)C[C@H]2[C@@H]3CCC4=CC(=O)C=C[C@]4(C)[C@@]3(F)[C@@H](O)C[C@@]21C [c146, Clobetasol Propionate]	

SMILES	inhibition at 10 µM (CYP2J2) [%]	inhibition at 30 min, 10 μM (CYP3A4 [1]) [%]	other results
CC(C)/N=c1\cc2n(-c3ccc(Cl)cc3)c3ccccc3nc-2cc1Nc1ccc(Cl)cc1 [c516, Clofazimine]	79.1	-82.9	
CC(COc1ccccc1)N(CCCl)Cc1ccccc1 (stereo not shown) [c089, Phenoxybenzamine•HCl]	75		inhibition at 30 min, 10 μM (CYP3A4 [3]): 17.9%
